Measured values published in PMC10300798, “Alternative Enzyme Inhibition Assay for Safety Evaluation of Food Preservatives” (Life, 2023).

Tests used:
Assay type in all cases: biochemical
trypsin (Try) = molecular target: T1, trypsin (Try) (Sus scrofa, UniProt P00761); assay: BAEE hydrolysis, absorbance […] nm; details: read-out: Potassium Sorbate / IC50 (converted)
T1 construct: native, from porcine pancreas, lyophilized, 1300 BAEE U/mg (Sigma-Aldrich)

[1] = molecular target: T2, alcohol dehydrogenase (ADH) (Saccharomyces cerevisiae, UniProt P00330); assay: spectrophotometric NAD+ reduction, […] nm; details: read-out: Potassium Sorbate / IC20
T2 construct: gene ADH1
T2 sequence (P00330 2-348): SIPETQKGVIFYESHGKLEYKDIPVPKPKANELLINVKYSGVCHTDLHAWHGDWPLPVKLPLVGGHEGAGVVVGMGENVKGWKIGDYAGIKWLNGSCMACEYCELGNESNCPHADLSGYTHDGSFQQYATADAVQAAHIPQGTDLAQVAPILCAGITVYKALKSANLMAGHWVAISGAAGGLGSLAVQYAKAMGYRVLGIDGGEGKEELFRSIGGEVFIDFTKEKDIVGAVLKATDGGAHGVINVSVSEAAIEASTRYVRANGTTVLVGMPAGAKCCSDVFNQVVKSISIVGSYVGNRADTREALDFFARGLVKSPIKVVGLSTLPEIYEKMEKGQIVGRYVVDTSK

[2] = molecular target: T3, lactate dehydrogenase (LDH) (Oryctolagus cuniculus, UniProt P13491); assay: spectrophotometric NAD+ reduction, […] nm; details: read-out: Sodium Benzoate / IC20
T3 construct: gene LDHA

T1 sequence (P00761 9-231): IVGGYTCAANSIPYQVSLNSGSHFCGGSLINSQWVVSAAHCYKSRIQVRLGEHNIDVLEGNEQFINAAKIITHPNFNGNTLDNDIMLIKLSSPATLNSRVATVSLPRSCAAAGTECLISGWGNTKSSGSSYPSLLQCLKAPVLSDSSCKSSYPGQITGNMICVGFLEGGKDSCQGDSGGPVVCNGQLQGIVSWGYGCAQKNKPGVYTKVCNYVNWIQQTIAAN

| IC50 (trypsin (Try)) [µM] | IC20 [1] [µg/mL] | IC20 [2] [µg/mL] | SMILES |
| --- | --- | --- | --- |
| 134 | > 5000 | – | C/C=C/C=C/C(=O)O [potassium sorbate] |
| – | – | 2200 ± 321 | O=C(O)c1ccccc1 [sodium benzoate] |
